# Data reported in the supplement of paper PMC4932681.
# Structures can show the parent of a compound that is named as a salt.
# Tests used:
# ZR-75-1 Tam2 [1] = assay: drug sensitivity score (DSS) (DSS (dimensionless)); higher = more sensitive; extreme values may be limits of the assay; settings: 4-OH-tamoxifen in medium 1 µM; 72 h
# In short: (§1)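 Breast cancer cell lines and their resistant derivatives were seeded into 384-well plates containing library drugs at five concentrations across a 10 000-fold range, with resistant lines kept in medium with 1 μM of the selecting drug. After 72 h at 37 °C, CellTiter-Glo viability was read on a PHERAstar and normalised to vehicle-only and positive controls. Logistic dose–response fits in the Breeze pipeline gave drug sensitivity score, relative IC50 (curve midpoint) and top-dose inhibition.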
# BT-474 Tam1 [2] = assay: as above; settings: 4-OH-tamoxifen in medium 1 µM; 72 h
# In short: as §1
# ZR-75-1 [3] = assay: as above; settings: 72 h
# In short: as §1
# BT-474 Tam2 [4] = assay: as above; settings: 4-OH-tamoxifen in medium 1 µM; 72 h
# In short: as §1
# MCF-7 [5] = assay: as above; settings: 72 h
# In short: as §1
# MCF-7 Tam1 [6] = assay: as above; settings: 4-OH-tamoxifen in medium 1 µM; 72 h
# In short: as §1
# ZR-75-1 Tam1 [7] = assay: as above; settings: 4-OH-tamoxifen in medium 1 µM; 72 h
# In short: as §1
# T-47D Tam1 [8] = assay: as above; settings: 4-OH-tamoxifen in medium 1 µM; 72 h
# In short: as §1
# T-47D [9] = assay: as above; settings: 72 h
# In short: as §1
# BT-474 [10] = assay: as above; settings: 72 h
# In short: as §1
# T-47D Tam2 [11] = assay: as above; settings: 4-OH-tamoxifen in medium 1 µM; 72 h
# In short: as §1
# ZR-75-1 Tam2 [12] = assay: relative IC50 (midpoint of fitted logistic curve, plateau may be below 50% inhibition; CellTiter-Glo viability); higher = less potent; settings: 4-OH-tamoxifen in medium 1 µM; 72 h
# In short: as §1
# BT-474 Tam1 [13] = assay: as above; settings: 4-OH-tamoxifen in medium 1 µM; 72 h
# In short: as §1
# ZR-75-1 [14] = assay: as above; settings: 72 h
# In short: as §1
# BT-474 Tam2 [15] = assay: as above; settings: 4-OH-tamoxifen in medium 1 µM; 72 h
# In short: as §1
# MCF-7 [16] = assay: as above; settings: 72 h
# In short: as §1
# MCF-7 Tam1 [17] = assay: as above; settings: 4-OH-tamoxifen in medium 1 µM; 72 h
# In short: as §1
# ZR-75-1 Tam1 [18] = assay: as above; settings: 4-OH-tamoxifen in medium 1 µM; 72 h
# In short: as §1
# T-47D Tam1 [19] = assay: as above; settings: 4-OH-tamoxifen in medium 1 µM; 72 h
# In short: as §1
# T-47D [20] = assay: as above; settings: 72 h
# In short: as §1
# BT-474 [21] = assay: as above; settings: 72 h
# In short: as §1
# T-47D Tam2 [22] = assay: as above; settings: 4-OH-tamoxifen in medium 1 µM; 72 h
# In short: as §1
SMILES,relative IC50 (BT-474 Tam1 [13]),relative IC50 (BT-474 Tam2 [15]),relative IC50 (MCF-7 [16]; 4-OH-tamoxifen in medium 0 µM),relative IC50 (MCF-7 [16]; 4-OH-tamoxifen in medium 1 µM),relative IC50 (MCF-7 Tam1 [17]),relative IC50 (T-47D Tam1 [19]),relative IC50 (T-47D [20]; 4-OH-tamoxifen in medium 0 µM),relative IC50 (T-47D [20]; 4-OH-tamoxifen in medium 1 µM),relative IC50 (BT-474 [21]; 4-OH-tamoxifen in medium 0 µM),relative IC50 (BT-474 [21]; 4-OH-tamoxifen in medium 1 µM),relative IC50 (T-47D Tam2 [22]),drug sensitivity score (ZR-75-1 Tam2 [1]),drug sensitivity score (BT-474 Tam1 [2]),drug sensitivity score (ZR-75-1 [3]; 4-OH-tamoxifen in medium 0 µM),drug sensitivity score (ZR-75-1 [3]; 4-OH-tamoxifen in medium 1 µM),drug sensitivity score (BT-474 Tam2 [4]),drug sensitivity score (MCF-7 [5]; 4-OH-tamoxifen in medium 0 µM),drug sensitivity score (MCF-7 [5]; 4-OH-tamoxifen in medium 1 µM),drug sensitivity score (MCF-7 Tam1 [6]),drug sensitivity score (ZR-75-1 Tam1 [7]),drug sensitivity score (T-47D Tam1 [8]),drug sensitivity score (T-47D [9]; 4-OH-tamoxifen in medium 0 µM),drug sensitivity score (T-47D [9]; 4-OH-tamoxifen in medium 1 µM),drug sensitivity score (BT-474 [10]; 4-OH-tamoxifen in medium 0 µM),drug sensitivity score (BT-474 [10]; 4-OH-tamoxifen in medium 1 µM),drug sensitivity score (T-47D Tam2 [11]),relative IC50 (ZR-75-1 Tam2 [12]),relative IC50 (ZR-75-1 [14]; 4-OH-tamoxifen in medium 0 µM),relative IC50 (ZR-75-1 [14]; 4-OH-tamoxifen in medium 1 µM),relative IC50 (ZR-75-1 Tam1 [18])
CN1CCN(c2ccc3nc(-c4c(N)c5c(F)cccc5[nH]c4=O)[nH]c3c2)CC1 [Dovitinib (CHIR-258)],> 10 µM,> 10 µM,> 10 µM,> 10 µM,> 10 µM,> 10 µM,> 10 µM,> 10 µM,> 10 µM,> 10 µM,> 10 µM,0,0,0,0,0,0,0,0,0,0,0,0,0,0,0,> 10 µM,> 10 µM,> 10 µM,> 10 µM
"c1ccc([C@H]2CN3CCSC3=N2)cc1 [Levamisole, (Tetramisole hydrochloride)]",> 10 µM,> 10 µM,> 10 µM,> 10 µM,> 10 µM,> 10 µM,> 10 µM,> 10 µM,> 10 µM,> 10 µM,> 10 µM,0,0,0,0,0,0,0,0,0,0,0,0,0,0,0,> 10 µM,> 10 µM,> 10 µM,> 10 µM
CC1=C2C[C@H]3[C@@H](CC=C4C[C@@H](O)CC[C@@]43C)[C@@H]2CC[C@]12O[C@@H]1C[C@H](C)CN[C@H]1[C@H]2C [Cyclopamine],> 10 µM,> 10 µM,> 10 µM,> 10 µM,> 10 µM,> 10 µM,> 10 µM,> 10 µM,> 10 µM,> 10 µM,> 10 µM,0,0,0,0,0,0,0,0,0,0,0,0,0,0,0,> 10 µM,> 10 µM,> 10 µM,> 10 µM
O=NN(CCCl)C(=O)NCCCl [Carmustine],> 10 µM,> 10 µM,> 10 µM,> 10 µM,> 10 µM,> 10 µM,> 10 µM,> 10 µM,> 10 µM,> 10 µM,> 10 µM,0,0,0,0,0,0,0,0,0,0,0,0,0,0,0,> 10 µM,> 10 µM,> 10 µM,> 10 µM

# The next lines start with results.
relative IC50 (BT-474 Tam1 [13]),relative IC50 (BT-474 Tam2 [15]),relative IC50 (MCF-7 [16]; 4-OH-tamoxifen in medium 0 µM),relative IC50 (MCF-7 [16]; 4-OH-tamoxifen in medium 1 µM),relative IC50 (MCF-7 Tam1 [17]),relative IC50 (T-47D Tam1 [19]),relative IC50 (T-47D [20]; 4-OH-tamoxifen in medium 0 µM),relative IC50 (T-47D [20]; 4-OH-tamoxifen in medium 1 µM),relative IC50 (BT-474 [21]; 4-OH-tamoxifen in medium 0 µM),relative IC50 (BT-474 [21]; 4-OH-tamoxifen in medium 1 µM),relative IC50 (T-47D Tam2 [22]),SMILES,drug sensitivity score (ZR-75-1 Tam2 [1]),drug sensitivity score (BT-474 Tam1 [2]),drug sensitivity score (ZR-75-1 [3]; 4-OH-tamoxifen in medium 0 µM),drug sensitivity score (ZR-75-1 [3]; 4-OH-tamoxifen in medium 1 µM),drug sensitivity score (BT-474 Tam2 [4]),drug sensitivity score (MCF-7 [5]; 4-OH-tamoxifen in medium 0 µM),drug sensitivity score (MCF-7 [5]; 4-OH-tamoxifen in medium 1 µM),drug sensitivity score (MCF-7 Tam1 [6]),drug sensitivity score (ZR-75-1 Tam1 [7]),drug sensitivity score (T-47D Tam1 [8]),drug sensitivity score (T-47D [9]; 4-OH-tamoxifen in medium 0 µM),drug sensitivity score (T-47D [9]; 4-OH-tamoxifen in medium 1 µM),drug sensitivity score (BT-474 [10]; 4-OH-tamoxifen in medium 0 µM),drug sensitivity score (BT-474 [10]; 4-OH-tamoxifen in medium 1 µM),drug sensitivity score (T-47D Tam2 [11]),relative IC50 (ZR-75-1 Tam2 [12]),relative IC50 (ZR-75-1 [14]; 4-OH-tamoxifen in medium 0 µM),relative IC50 (ZR-75-1 [14]; 4-OH-tamoxifen in medium 1 µM),relative IC50 (ZR-75-1 Tam1 [18])
> 1 µM,> 1 µM,> 1 µM,> 1 µM,> 1 µM,> 1 µM,> 1 µM,> 1 µM,> 1 µM,> 1 µM,> 1 µM,Cc1ccc(F)c(NC(=O)Nc2ccc(-c3cccc4[nH]nc(N)c34)cc2)c1 [Linifanib (ABT-869)],0,0,0,0,0,0,0,0,0,0,0,0,0,0,0,> 1 µM,> 1 µM,> 1 µM,> 1 µM
> 10 µM,> 10 µM,> 10 µM,> 10 µM,> 10 µM,> 10 µM,> 10 µM,> 10 µM,> 10 µM,> 10 µM,> 10 µM,O=P(O)(O)C(O)(Cn1ccnc1)P(=O)(O)O [Zoledronic acid],0,0,0,0,0,0,0,0,0,0,0,0,0,0,0,> 10 µM,> 10 µM,> 10 µM,> 10 µM
2.99 µM,1.78 µM,0.029 µM,0.0167 µM,0.0822 µM,0.0937 µM,0.138 µM,0.172 µM,–,1.89 µM,0.419 µM,COC(=O)C[C@](O)(CCCC(C)(C)O)C(=O)O[C@@H]1C(OC)=C[C@]23CCCN2CCc2cc4c(cc2[C@H]13)OCO4 [Omacetaxine (Homoharringtonine)],17.8,4.82,19,15.2,6.34,25.1,26.1,16.2,13.8,16.4,17.4,11,6.72,6.25,10.7,0.0922 µM,0.0372 µM,0.0465 µM,0.0844 µM
